Reference: US20130029962A1, “Substituted Heteroaromatic Pyrazole-Containing Carboxamide and Urea Compounds as Vanilloid Receptor Ligands” (Gruenenthal GmbH, priority 2011, published 2013)

Target: T1, vanilloid receptor 1 (VR1/TRPV1 receptor) (Homo sapiens, UniProt Q8NER1)
T1 construct: expressed in transfected cells; host or cells: CHO K1
Test: Functional testing on the vanilloid receptor 1 (VR1/TRPV1): FLIPR Ca2+ influx assay, displacement of capsaicin
Format: cell-based, human being
Set-up: key to mode of action at VR1/TRPV1 (AG, pAG, NE), Cap: AG=agonist; NE=no effect; pAG=partial agonist
Conditions: 5 μM compound; capsaicin (Cap); human being
Description: Furthermore, preference may be given to compounds according to the invention that cause a 50 percent displacement of capsaicin, which is present at a concentration of 100 nM, in a FLIPR assay with CHO K1 cells which were transfected with the human VR1 gene at a concentration of less than 2,000 nM, preferably less than 1,000 nM, particularly preferably less than 300 nM, most particularly preferably less than 100 nM, even more preferably less than 75 nM, additionally preferably less than 50 nM, most preferably less than 10 nM.
In the process, the Ca^2+ influx is quantified in the FLIPR assay with the aid of a Ca^2+-sensitive dye (type Fluo-4, Molecular Probes Europe BV, Leiden, the Netherlands) in a fluorescent imaging plate reader (FLIPR, Molecular Devices, Sunnyvale, USA), as described hereinafter. […]
The number of cells in the suspension is set to 3×10^5 per mL and 150 μL of this suspension are in each case introduced into a recess in the cell culture plates coated as described hereinbefore. In the incubator the plates are left for two to three days at 37° C., 5% by volume of CO2 and 95% relative humidity. Subsequently, the cells are loaded with 2 μM of Fluo-4 and 0.01% by volume of Pluronic F127 (Molecular Probes Europe BV, Leiden, the Netherlands) in HBSS buffer (Hank's buffered saline solution, Gibco Invitrogen GmbH, Karlsruhe, Germany) for 30 min at 37° C., washed 3 times with HBSS buffer and after further incubation for 15 minutes at room temperature used for Ca^2+ measurement in a FLIPR assay. The Ca^2+-dependent fluorescence is in this case measured before and after the addition of substances (λex=488 nm, λem=540 nm). Quantification is carried out by measuring the highest fluorescence intensity (FC, fluorescence counts) over time.
The FLIPR protocol consists of 2 substance additions. First the compounds to be tested (10 μM) are pipetted onto the cells and the Ca^2+ influx is compared with the control (capsaicin 10 μM). This provides the result in % activation based on the Ca^2+ signal after the addition of 10 μM of capsaicin (CP). After 5 minutes' incubation, 100 nM of capsaicin are applied and the Ca^2+ influx is also determined. Desensitising agonists and antagonists lead to suppression of the Ca^2+ influx. The % inhibition is calculated compared to the maximum achievable inhibition with 10 μM of capsazepine. Triple analyses (n=3) are carried out and repeated in at least 3 independent experiments (N=4).
Starting from the percentage displacement caused by different concentrations of the compounds to be tested of general formula I, IC50 inhibitory concentrations which cause a 50-percent displacement of capsaicin were calculated. Ki values for the test substances were obtained by conversion by means of the Cheng-Prusoff equation (Cheng, Prusoff; Biochem. Pharmacol. 22, 3099-3108, 1973).
The affinity of the compounds according to the invention for the vanilloid receptor 1 (VR1/TRPV1 receptor) was determined as described above (pharmacological method I).

T1 sequence (Q8NER1 whole entry): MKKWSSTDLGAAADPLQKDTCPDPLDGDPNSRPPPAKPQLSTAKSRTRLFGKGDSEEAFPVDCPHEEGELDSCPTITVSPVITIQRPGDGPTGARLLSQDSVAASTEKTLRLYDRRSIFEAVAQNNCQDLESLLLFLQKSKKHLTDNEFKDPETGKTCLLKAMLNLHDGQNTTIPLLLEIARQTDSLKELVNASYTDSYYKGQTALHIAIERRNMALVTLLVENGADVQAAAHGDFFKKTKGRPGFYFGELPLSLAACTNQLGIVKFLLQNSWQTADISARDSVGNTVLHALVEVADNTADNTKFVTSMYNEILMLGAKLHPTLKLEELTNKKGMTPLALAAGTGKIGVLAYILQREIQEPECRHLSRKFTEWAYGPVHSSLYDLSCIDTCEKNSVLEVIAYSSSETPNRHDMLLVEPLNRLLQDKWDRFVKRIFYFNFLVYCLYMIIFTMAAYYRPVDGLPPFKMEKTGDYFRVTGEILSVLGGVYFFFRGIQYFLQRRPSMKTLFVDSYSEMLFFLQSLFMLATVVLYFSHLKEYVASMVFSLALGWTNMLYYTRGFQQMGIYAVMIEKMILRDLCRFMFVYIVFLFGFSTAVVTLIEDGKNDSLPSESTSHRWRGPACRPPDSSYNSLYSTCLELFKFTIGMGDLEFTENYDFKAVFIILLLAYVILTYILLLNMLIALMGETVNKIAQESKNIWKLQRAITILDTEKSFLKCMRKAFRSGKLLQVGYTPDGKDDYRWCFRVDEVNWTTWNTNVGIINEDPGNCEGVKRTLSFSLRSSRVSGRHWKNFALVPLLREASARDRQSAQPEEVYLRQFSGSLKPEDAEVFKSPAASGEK

For `CC(C(=O)NCc1cc(C(F)(F)F)nn1-c1cccc(Cl)c1)c1ccc(C(=O)Nc2ccccc2)nc1` (centres unmarked) [Example 57], which “inhibition (as a percentage) at the concentration after @, Cap” value is on record?
The value was 60%@5 μM.

Same assay, conditions: 5 μM compound; capsaicin (Cap); human being; read-out: inhibition (as a percentage) at the concentration after @, Cap

How did the inhibition at 5 µM turn out when `O=C(NCc1cc(C(F)(F)F)nn1-c1cccc(F)c1)Nc1ccc(CO)nc1` [Example 33, 1-((1-(3-fluorophenyl)-3-(trifluoromethyl)-1H-pyrazol-5-yl)methyl)-3-(6-(hydroxymethyl)pyridin-3-yl)urea] was run?
The inhibition at 5 µM was 41%.

With `COc1ccc(-n2nc(C(F)(F)F)cc2CNC(=O)Nc2ccc(CO)nc2)cc1C` [Example 37, 1-(6-(hydroxymethyl)pyridin-3-yl)-3-((1-(4-methoxy-3-methylphenyl)-3-(trifluoromethyl)-1H-pyrazol-5-yl)methyl)urea] as the compound, how does the inhibition at 5 µM read?
Its inhibition at 5 µM is 41%.

How did the inhibition at 5 µM turn out when `O=C(NCc1cc(C(F)(F)F)nn1-c1cccc(Cl)c1)Nc1ccc(CCO)nc1` [Example 52, 1-((1-(3-chlorophenyl)-3-(trifluoromethyl)-1H-pyrazol-5-yl)methyl)-3-(6-(2-hydroxyethyl)pyridin-3-yl)urea] was run?
Its inhibition at 5 µM is 45%.

Which inhibition at 5 µM does the source give for `CC(C(=O)NCc1cc(C(C)(C)C)nn1-c1cccc(Cl)c1)c1ccc(C(N)=O)nc1` (centres unmarked) [Example 56, 5-(1-((3-tert-butyl-1-(3-chlorophenyl)-1H-pyrazol-5-yl)methylamino)-1-oxopropan-2-yl)picolinamide] here?
Its inhibition at 5 µM is 77%.

Same assay, conditions: capsaicin (Cap) as stimulus; Ki from IC50 by Cheng-Prusoff; read-out: (f) Ki (human being) [nM] Cap

Which Ki does the source give for `Cc1cccc(-n2nc(C(F)(F)F)cc2CNC(=O)Nc2ccc(CO)nc2)c1` [Example 36, 1-(6-(hydroxymethyl)pyridin-3-yl)-3-((1-m-tolyl-3-(trifluoromethyl)-1H-pyrazol-5-yl)methyl)urea] here?
Its Ki is 101 nM.

How did the Ki turn out when `O=C(NCc1cc(C(F)(F)F)nn1-c1cccc(Cl)c1)Nc1cnc(CO)c(F)c1` [Example 50, 1-((1-(3-chlorophenyl)-3-(trifluoromethyl)-1H-pyrazol-5-yl)methyl)-3-(5-fluoro-6-(hydroxymethyl)pyridin-3-yl)urea] was run?
The Ki was 24 nM.

How did the Ki turn out when `CC(C(=O)NCc1cc(C(F)(F)F)nn1-c1cccc(Cl)c1)c1ccc(CCO)nc1` (centres unmarked) [Example 51, N-((1-(3-chlorophenyl)-3-(trifluoromethyl)-1H-pyrazol-5-yl)methyl)-2-(6-(2-hydroxyethyl)pyridin-3-yl)propanamide] was run?
The Ki was 8 nM.

With `CC(C(=O)NCc1cc(C(F)(F)F)nn1-c1cccc(Cl)c1)c1ccc(COCCO)nc1` (centres unmarked) [Example 53, N-((1-(3-chlorophenyl)-3-(trifluoromethyl)-1H-pyrazol-5-yl)methyl)-2-(6-((2-hydroxyethoxy)methyl)pyridin-3-yl)propanamide] as the compound, how does the Ki read?
Its Ki is 44 nM.

Which Ki does the source give for `CC(C(=O)NCc1cc(C(F)(F)F)nn1-c1cccc(Cl)c1)c1ccc(C(N)=O)nc1` (centres unmarked) [Example 55, 5-(1-((1-(3-chlorophenyl)-3-(trifluoromethyl)-1H-pyrazol-5-yl)methylamino)-1-oxopropan-2-yl)picolinamide] here?
The Ki was 23 nM.

Which Ki does the source give for `CC(C(=O)NCc1cc(C(F)(F)F)nn1-c1cccc(Cl)c1)c1ccc(C(=O)Nc2ccc(F)cc2)nc1` (centres unmarked) [Example 58, 5-(1-((1-(3-chlorophenyl)-3-(trifluoromethyl)-1H-pyrazol-5-yl)methylamino)-1-oxopropan-2-yl)-N-(4-fluorophenyl)picolinamide] here?
Its Ki is 5 nM.

Same assay, conditions: capsaicin (Cap); human being

How did the “mode of action at VR1/TRPV1 (AG, pAG, NE), Cap” value (from here on “mode of action at VR1/TRPV1”) turn out when `COc1ccc(-n2nc(C(F)(F)F)cc2CNC(=O)Nc2ccc(CO)nc2)cc1F` [Example 35, 1-((1-(3-fluoro-4-methoxyphenyl)-3-(trifluoromethyl)-1H-pyrazol-5-yl)methyl)-3-(6-(hydroxymethyl)pyridin-3-yl)urea] was run?
The value was “NE”.

Which “mode of action at VR1/TRPV1” value does the source give for `O=C(NCc1cc(C(F)(F)F)nn1-c1cccc(F)c1)Nc1ccc(C2CCOCC2)nc1` [Example 54, 1-((1-(3-fluorophenyl)-3-(trifluoromethyl)-1H-pyrazol-5-yl)methyl)-3-(6-(tetrahydro-2H-pyran-4-yl)pyridin-3-yl)urea] here?
The value was “NE”.

Which “mode of action at VR1/TRPV1” value does the source give for `CC(C(=O)NCc1cc(C(C)(C)C)nn1-c1cccc(Cl)c1)c1ccc(C(N)=O)nc1` (centres unmarked) [Example 56, 5-(1-((3-tert-butyl-1-(3-chlorophenyl)-1H-pyrazol-5-yl)methylamino)-1-oxopropan-2-yl)picolinamide] here?
Its value is “AG”.
